Source: patent US5604234A, “Substituted thiol macrolactam immunomodulators” (Abbott Laboratories, priority 1995, dated 1997)

Each compound was assayed on human mixed lymphocyte reaction (MLR) (assay: human mixed lymphocyte reaction (MLR) assay, immunosuppressant activity). Conditions: Homo sapiens, Lymphocyte, Table 2.
Assay type: cell-based
Method: The immunosuppressant activity of the compounds of the present invention was determined using the human mixed lymphocyte reaction (MLR) assay described by Kino, T. et al. in Transplantation Proceedings, XIX(5):36-39,Suppl. 6 (1987).

IC50 [nM]	Compound
0.75	CC[C@@H]1/C=C(\C)C[C@H](C)C[C@H](OC)[C@H]2O[C@@](O)(C(=O)C(=O)N3CCCC[C@H]3C(=O)O[C@H](/C(C)=C/[C@@H]3CC[C@H](SC)[C@H](OC)C3)[C@H](C)[C@@H](O)CC1=O)[C@H](C)C[C@@H]2OC [Example 90]
15.5	CC[C@@H]1/C=C(\C)C[C@H](C)C[C@H](OC)[C@H]2O[C@@](O)(C(=O)C(=O)N3CCCC[C@H]3C(=O)O[C@H](/C(C)=C/[C@@H]3CC[C@H]([S+](C)[O-])[C@H](OC)C3)[C@H](C)[C@@H](O)CC1=O)[C@H](C)C[C@@H]2OC (some centres unmarked) [Example 128]
0.58	CC[C@@H]1/C=C(\C)C[C@H](C)C[C@H](OC)[C@H]2O[C@@](O)(C(=O)C(=O)N3CCCC[C@H]3C(=O)O[C@H](/C(C)=C/[C@@H]3CC[C@H](SCSC)[C@H](OC)C3)[C@H](C)[C@@H](O)CC1=O)[C@H](C)C[C@@H]2OC [Example 130]
5.2	CC[C@@H]1/C=C(\C)C[C@H](C)C[C@H](OC)[C@H]2O[C@@](O)(C(=O)C(=O)N3CCCC[C@H]3C(=O)O[C@H](/C(C)=C/[C@@H]3CC[C@H](SCOC)[C@H](OC)C3)[C@H](C)[C@@H](O)CC1=O)[C@H](C)C[C@@H]2OC [Example 131]

More lines, now with the values behind:

Compound	IC50 [nM]
CCC1C=C(C)CC(C)CC(OC)C2OC(O)(C(=O)C(=O)N3CCCCC3C(=O)OC(C(C)=CC3CCC(SCCC(=O)OCc4ccccc4)C(OC)C3)C(C)C(O)CC1=O)C(C)CC2OC (centres unmarked) [Example 18]	18.5
CC[C@@H]1/C=C(\C)C[C@H](C)C[C@H](OC)[C@H]2O[C@@](O)(C(=O)C(=O)N3CCCC[C@H]3C(=O)O[C@H](/C(C)=C/[C@@H]3CC[C@H](S(C)(=O)=O)[C@H](OC)C3)[C@H](C)[C@@H](O)CC1=O)[C@H](C)C[C@@H]2OC [Example 129]	1.15
CC[C@@H]1/C=C(\C)C[C@H](C)C[C@H](OC)[C@H]2O[C@@](O)(C(=O)C(=O)N3CCCC[C@H]3C(=O)O[C@H](/C(C)=C/[C@@H]3CC[C@H](Sc4ccccc4)[C@H](OC)C3)[C@H](C)[C@@H](O)CC1=O)[C@H](C)C[C@@H]2OC [Example 132]	3.4

Same assay, conditions: Table 2

IC50 [nM]	Compound
6.5	CC[C@@H]1/C=C(\C)C[C@H](C)C[C@H](OC)[C@H]2O[C@@](O)(C(=O)C(=O)N3CCCC[C@H]3C(=O)O[C@H](/C(C)=C/[C@@H]3CC[C@H]([S+]([O-])c4ccccc4)[C@H](OC)C3)[C@H](C)[C@@H](O)CC1=O)[C@H](C)C[C@@H]2OC (single isomer, unassigned) [Example 133B]
